pIC50: −log10 of the molar value. Where two headings read alike, the source gives them in different places. Blank lines part the entries; values can stand above or below the compound they belong to.
Tests used:
[1] = target: T1, CYP17 (human testicular microsome) (Homo sapiens, UniProt P05093); assay: CYP17 enzymatic assay (IC50) (Biological Example 4); type: biochemical; settings: human testicular microsome
T1 construct: using microsomal fraction from human testis (Celsis Cat #S00110) as the enzyme source; tissue Celsis S00110; host or cells: human testis microsomal fraction
T1 sequence (P05093 1-508): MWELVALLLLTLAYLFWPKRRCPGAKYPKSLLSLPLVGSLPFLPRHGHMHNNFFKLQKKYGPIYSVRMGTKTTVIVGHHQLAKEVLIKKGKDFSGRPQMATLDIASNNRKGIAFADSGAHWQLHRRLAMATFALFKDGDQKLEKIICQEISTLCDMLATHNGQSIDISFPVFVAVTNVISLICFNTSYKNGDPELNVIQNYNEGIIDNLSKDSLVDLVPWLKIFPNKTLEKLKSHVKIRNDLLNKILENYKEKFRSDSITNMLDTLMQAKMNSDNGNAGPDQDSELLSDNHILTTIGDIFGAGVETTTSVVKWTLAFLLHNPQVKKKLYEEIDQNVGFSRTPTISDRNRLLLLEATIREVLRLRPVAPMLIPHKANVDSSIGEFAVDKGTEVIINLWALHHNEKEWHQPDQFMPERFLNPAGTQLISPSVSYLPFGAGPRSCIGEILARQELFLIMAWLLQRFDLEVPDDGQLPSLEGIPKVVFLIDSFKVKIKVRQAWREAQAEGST

[2] = target: T2, Cyp21 enzyme (Human HEK 293-Cyp21 stable transfected cells) (Homo sapiens, UniProt P08686); assay: CYP21-HEK293 enzymatic assay (IC50) (Biological Example 11); type: cell-based
T2 construct: expressed in transfected cells
T2 sequence (P08686 1-495): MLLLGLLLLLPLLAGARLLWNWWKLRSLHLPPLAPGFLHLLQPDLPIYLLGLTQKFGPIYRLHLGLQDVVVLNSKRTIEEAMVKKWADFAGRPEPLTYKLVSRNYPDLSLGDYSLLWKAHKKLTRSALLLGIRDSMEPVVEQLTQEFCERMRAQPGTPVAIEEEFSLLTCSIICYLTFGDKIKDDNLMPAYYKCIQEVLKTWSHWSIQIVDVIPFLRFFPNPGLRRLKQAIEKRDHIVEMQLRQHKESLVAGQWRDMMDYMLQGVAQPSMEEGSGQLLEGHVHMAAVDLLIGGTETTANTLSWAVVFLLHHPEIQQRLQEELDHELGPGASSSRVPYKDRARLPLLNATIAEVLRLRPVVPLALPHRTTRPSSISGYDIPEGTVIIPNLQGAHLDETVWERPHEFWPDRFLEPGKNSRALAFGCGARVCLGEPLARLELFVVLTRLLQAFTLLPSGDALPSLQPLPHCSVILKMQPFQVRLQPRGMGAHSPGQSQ

[3] = Human liver microsome stability assay (Biological Example 8b); settings: liver microsomes, pH 7.4
[4] = target: T1, CYP17 (human testicular microsome); assay: CYP17 enzymatic assay (% inhibition at 1 nM) (Biological Example 12); type: biochemical; settings: compound at 1 nM
[5] = HEK 293-Cyp21 cells, read-out: CYP21-HEK293 enzymatic assay IC50 (Biological Example No. 11)
[6] = read-out: CYP17 enzymatic assay % inhibition at 1 nM (Biological Example No. 12)
[7] = HEK 293-Cyp21 cells, read-out: Biological Example No. 11: CYP21-HEK293 enzymatic assay IC50
[8] = read-out: Biological Example No. 12: CYP17 enzymatic assay % inhibition at 1 nM
[9] = read-out: Biological Example No. 4: CYP17 enzymatic assay IC50
[10] = HEK 293-Cyp21 stable transfected cells, read-out: CYP21-HEK293 enzymatic assay IC50 (Biological Example No. 11)

SMILES: C[C@]12CC[C@H]3[C@@H](C=CC4=CC(=O)CC[C@@]43C)C1=CC=C2c1cccnc1 [Compound 289, (10R,13S)-10,13-dimethyl-17-(pyridin-3-yl)-8,9,10,11,12,13-hexahydro-1H-cyclopenta[a]phenanthren-3(2H)-one]
pIC50 ([1]; read-out: CYP17 enzymatic assay IC50 (Biological Example No. 4)): > 7.96
pIC50 [2, 5]: 7.00 to 8.00
half-life at 1 μM [3]: 1 to 50 min
inhibition at 0.001 µM [4, 6]: > 50%

SMILES: C[C@]12CCC3C(CCC4=CC(=O)CC[C@@]43C)C1=CC=C2c1cnccn1 (stereo partly drawn) [Compound 291, (10R,13S)-10,13-dimethyl-17-(pyrazin-2-yl)-6,7,8,9,10,11,12,13-octahydro-1H-cyclopenta[a]phenanthren-3(2H)-one]
pIC50 [2, 5]: < 7.00
half-life at 1 μM [3]: 1 to 50 min
inhibition at 0.001 µM [4, 6]: > 50%

SMILES: C[C@]12CCC3C(C=CC4=C(O)C(=O)CC[C@@]43C)C1=CC=C2c1cccnc1 (stereo partly drawn) [Compound 297, (10R,13S)-4-hydroxy-10,13-dimethyl-17-(pyridin-3-yl)-8,9,10,11,12,13-hexahydro-1H-cyclopenta[a]phenanthren-3(2H)-one]
pIC50 [2, 5]: < 7.00
half-life at 1 μM [3]: 1 to 50 min
inhibition at 0.001 µM [4, 6]: > 50%

SMILES: C[C@]12CCC(=O)C(O)=C1C=C[C@@H]1[C@@H]2CC[C@]2(C)C(c3cccnc3)=CC[C@@H]12 [Compound 301, (10R,13S)-4-hydroxy-10,13-dimethyl-17-(pyridin-3-yl)-8,9,10,11,12,13,14,15-octahydro-1H-cyclopenta[a]phenanthren-3(2H)-one]
pIC50 [2, 5]: < 6.00
half-life at 1 μM [3]: 1 to 50 min
inhibition at 0.001 µM [4, 6]: > 50%

SMILES: C[C@]12CCC(=O)C=C1C1CC1[C@@H]1[C@@H]2CC[C@]2(C)C(c3cccnc3)=CC[C@@H]12 (stereo partly drawn) [Compound 319, (4aR,6aS)-4a,6a-dimethyl-7-(pyridin-3-yl)-4,4a,4b,5,6,6a,9,9a,9b,9c,10,10a-dodecahydrocyclopenta[a]cyclopropa[l]phenanthren-2(3H)-one]
pIC50 [2, 7]: < 7.00
half-life at 1 μM [3]: 1 to 50 min
inhibition at 0.001 µM [4, 8]: > 50%

SMILES: C[C@]12CC[C@H]3[C@@H](CC(CO)C4=CC(=O)CC[C@@]43C)C1=CC=C2c1cccnc1 (stereo partly drawn) [Compound 340, (10R,13S)-6-(hydroxymethyl)-10,13-dimethyl-17-(pyridin-3-yl)-6,7,8,9,10,11,12,13-octahydro-1H-cyclopenta[a]phenanthren-3(2H)-one]
pIC50 [1, 9]: > 7.96
pIC50 [2, 7]: < 7.00
inhibition at 0.001 µM [4, 8]: > 50%

SMILES: CC1C[C@@H]2[C@H](CC[C@]3(C)C(c4cncc(F)c4)=CC[C@@H]23)[C@@]2(C)C=CC(=O)C=C12 (stereo partly drawn) [Compound 345, (10R,13S)-17-(5-fluoropyridin-3-yl)-6,10,13-trimethyl-6,7,8,9,10,11,12,13,14,15-decahydro-3H-cyclopenta[a]phenanthren-3-one]
pIC50 [1, 9]: > 7.96
pIC50 [2, 7]: 7.00 to 8.00
inhibition at 0.001 µM [4, 8]: > 50%

SMILES: C=C1C[C@H]2C3=CC=C(c4cccnc4)[C@@]3(C)CC[C@@H]2[C@@]2(C)C=CC(=O)C=C12 [Compound 350, (10R,13S)-10,13-dimethyl-6-methylene-17-(pyridin-3-yl)-6,7,8,9,10,11,12,13-octahydro-3H-cyclopenta[a]phenanthren-3-one]
pIC50 [2, 10]: > 8.00
half-life at 1 μM [3]: 1 to 50 min

SMILES: CC1CC2C(CC[C@]3(C)C(c4cccnc4)=CCC23)[C@@]2(C)CCC(=NO)C=C12 (stereo partly drawn) [Compound 361, (10R,13S)-6,10,13-trimethyl-17-(pyridin-3-yl)-6,7,8,9,10,11,12,13,14,15-decahydro-1H-cyclopenta[a]phenanthren-3(2H)-one oxime]
pIC50 [2, 7]: < 7.00
half-life at 1 μM [3]: 1 to 50 min
inhibition at 0.001 µM [4, 8]: 10 to 50%

pIC50 [2, 7]: 7.00 to 8.00
half-life at 1 μM [3]: 1 to 50 min
inhibition at 0.001 µM [4, 8]: 10 to 50%
SMILES: CC1CC2C3=CC=C(c4cncc(F)c4)[C@@]3(C)CCC2[C@@]2(C)CCNC(=O)C=C12 (stereo partly drawn) [Compound 389, (5aR,7aS)-8-(5-fluoropyridin-3-yl)-5a,7a,12-trimethyl-3,4,5,5a,5b,6,7,7a,11,12-decahydrocyclopenta[5,6]naphtho[1,2-d]azepin-2(10bH)-one]

pIC50 [1, 9]: > 7.96
pIC50 [2, 7]: < 6.00
inhibition at 0.001 µM [4, 8]: > 50%
SMILES: C[C@]12CCC3C(CCC4=CC(=O)NCC[C@@]43C)C1=CC=C2c1cncc(C(F)F)c1 (stereo partly drawn) [Compound 390, (5aR,7aS)-8-(5-(difluoromethyl)pyridin-3-yl)-5a,7a-dimethyl-3,4,5,5a,5b,6,7,7a,11,12-decahydrocyclopenta[5,6]naphtho[1,2-d]azepin-2(10bH)-one]

pIC50 [2, 7]: < 6.00
inhibition at 0.001 µM [4, 8]: < 10%
SMILES: CC1CC2C3=CC=C(c4cncc(C(F)F)c4)[C@@]3(C)CCC2[C@@]2(C)CCNC(=O)C=C12 (stereo partly drawn) [Compound 391, (5aR,7aS)-8-(5-(difluoromethyl)pyridin-3-yl)-5a,7a,12-trimethyl-3,4,5,5a,5b,6,7,7a,11,12-decahydrocyclopenta[5,6]naphtho[1,2-d]azepin-2(10bH)-one]

pIC50 [2, 10]: > 8.00
half-life at 1 μM [3]: 1 to 50 min
SMILES: CC1C[C@@H]2[C@H](CC[C@]3(C)C(c4cccnc4)CC[C@@H]23)[C@@]2(C)CCNC(=O)C=C12 (stereo partly drawn) [Compound 395, (5aR,7aS)-5a,7a,12-trimethyl-8-(pyridin-3-yl)-3,4,5,5a,5b,6,7,7a,8,9,10,10a,11,12-tetradecahydrocyclopenta[5,6]naphtho[1,2-d]azepin-2(10bH)-one]

SMILES: C[C@]12CCC(=O)C=C1C=CC1C2CC[C@]2(C)C(c3cccnc3)=CCC12 (stereo partly drawn) [Compound 408, (10R,13S)-10,13-dimethyl-17-(pyridin-3-yl)-8,9,10,11,12,13,14,15-octahydro-1H-cyclopenta[a]phenanthren-3(2H)-one]
pIC50 [2, 7]: < 7.00
half-life at 1 μM [3]: 1 to 50 min
inhibition at 0.001 µM [4, 8]: > 50%

SMILES: C[C@]12CCC(=O)C=C1C(=O)CC1C2CC[C@]2(C)C(c3cncc(F)c3)=CCC12 (stereo partly drawn) [Compound 417, (10R,13S)-17-(5-fluoropyridin-3-yl)-10,13-dimethyl-7,8,9,11,12,13,14,15-octahydro-1H-cyclopenta[a]phenanthrene-3,6(2H,10H)-dione]
pIC50 [1, 9]: > 7.96
pIC50 [2, 7]: < 6.00
inhibition at 0.001 µM [4, 8]: > 50%

SMILES: C[C@]12CCC(=O)CC1C(=O)CC1C2CC[C@]2(C)C(c3cncc(F)c3)=CCC12 (stereo partly drawn) [Compound 418, (10R,13S)-17-(5-fluoropyridin-3-yl)-10,13-dimethyl-4,5,7,8,9,11,12,13,14,15-decahydro-1H-cyclopenta[a]phenanthrene-3,6(2H,10H)-dione]
pIC50 [1, 9]: > 7.96
pIC50 [2, 7]: < 6.00
inhibition at 0.001 µM [4, 8]: > 50%

SMILES: CC1C[C@@H]2[C@H](CC[C@]3(C)C(c4cccnc4)CC[C@@H]23)[C@@]2(C)CCC(=O)C=C12 (stereo partly drawn) [Compound 420, (10R,13S)-6,10,13-trimethyl-17-(pyridin-3-yl)-6,7,8,9,10,11,12,13,14,15,16,17-dodecahydro-1H-cyclopenta[a]phenanthren-3(2H)-one]
pIC50 [2, 10]: > 8.00
half-life at 1 μM [3]: 1 to 50 min

SMILES: CC1C[C@@H]2[C@H](CC[C@]3(C)C(c4cccnc4)CC[C@@H]23)[C@@]2(C)C=CC(=O)C=C12 (stereo partly drawn) [Compound 421, (10R,13S)-6,10,13-trimethyl-17-(pyridin-3-yl)-6,7,8,9,10,11,12,13,14,15,16,17-dodecahydro-3H-cyclopenta[a]phenanthren-3-one]
pIC50 [2, 10]: > 8.00
half-life at 1 μM [3]: 1 to 50 min

SMILES: C[C@]12CCC(=O)C=C1CCC1C2CC[C@]2(C)C(c3cncc(C(F)F)c3)=CCC12 (stereo partly drawn) [Compound 479, (10R,13S)-17-(5-(difluoromethyl)pyridin-3-yl)-10,13-dimethyl-6,7,8,9,10,11,12,13,14,15-decahydro-1H-cyclopenta[a]phenanthren-3(2H)-one]
pIC50 [2, 7]: < 6.00
inhibition at 0.001 µM [4, 8]: 10 to 50%

From patent publication US20130252930A1 (BIOMARIN PHARMACEUTICAL INC., priority 2010, published 2013)
